# Patent US20230107983A1, “COMPOUND ISOLATED FROM TORILIDIS FRUCTUS, AND ANTICANCER PHARMACEUTICAL COMPOSITION CONTAINING SAME AS ACTIVE INGREDIENT” (PHARMA-GENE CO., LTD., priority 2020, published 2023)
# Tests used:
# [1] = Change in mouse weight, HCT116 xenograft, intraperitoneal administration; assay type: in vivo, nude mouse; design: Change in mouse weight: unit not given here; conditions: intraperitoneal once a day
# Procedure: The Tr-9 was dissolved in sterile PBS and 1 mM Tr-9 200 µℓ was intraperitoneally administered per mouse once a day, and all animals were weighed immediately before the start of drug (Tr-9) administration and 9 times in total from day 2 to day 21 after cancer cell transplantation (Table 7).
# In Table 7 above, data values are the mean ± standard deviation. After measuring the body weight, the animals were killed using CO2 gas, and the tumor was separated and the size was measured in 3 directions using a vernier caliper for each animal. Then, the change in tumor size was expressed as a calculated value of (length × width × height)/2 (Table 8).
# [2] = Change in mouse weight, A549 xenograft, oral administration; assay type: in vivo, nude mouse; design: Change in mouse weight: unit not given here; conditions: once a day
# Procedure: (§1) The Tr-9 was dissolved in sterile PBS and 1 mM Tr-9 200 µℓ was orally administered per mouse once a day, and all animals were weighed immediately before the start of drug (Tr-9) administration and 10 times in total from day 2 to day 23 after cancer cell transplantation (Table 1).
# (§2) In Table 1 above, data values are the mean ± standard deviation. After measuring the body weight, the animals were killed using CO2 gas, and the tumor was separated and the size was measured in 3 directions using a vernier caliper for each animal. Then, the change in tumor size was expressed as a calculated value of (length × width × height)/2 (Table 2).
# [3] = system: human lung cancer cells (A549); assay: Nude mouse xenograft model of human lung cancer cells, intraperitoneal administration; assay type: in vivo
# Procedure: Anticancer activity against lung cancer according to the intraperitoneal administration of Tr-9 was confirmed through a nude mouse xenograft model of human lung cancer cells (A549). In Example 4, it was carried out using the same animal model and method as the oral administration, except that it was administered intraperitoneally.
# Specific pathogen-free (SPF) nude mice of the BALB/C strain were used as the animal model. Animals were bred in the animal room of Daedeok Campus of Hannam University maintained at a temperature of 23±3° C., relative humidity of 55±15%, ventilation frequency of 10-20 times/hr, lighting time of 12 hours(lights on at 8 am and off at 8 pm) and illuminance of 150 to 300 Lux.
# (§3) For cancer cell transplantation, all cells were collected and counted on the last day of culture, and the concentration of human lung cancer cell line A549 was adjusted to 5×10^6 cells/ml using PBS. The adjusted cell culture solution was injected subcutaneously into the auxiliary region between the right scapula and chest wall at 0.2 ml (1×10^6 cells/mouse) per mouse.
# The Tr-9 was dissolved in sterile PBS and 1 mM Tr-9 200 µℓ was intraperitoneally administered per mouse once a day, and all animals were weighed immediately before the start of drug (Tr-9) administration and 10 times in total from day 2 to day 23 after cancer cell transplantation (Table 4).
# In Table 4 above, data values are the mean ± standard deviation. After measuring the body weight, the animals were killed using CO2 gas, and the tumor was separated and the size was measured in 3 directions using a vernier caliper for each animal. Then, the change in tumor size was expressed as a calculated value of (length × width × height)/2 (Table 4).
# (§4) Tumor size increase is (Δt)= Vt—Vo, wherein Vt is the value of measuring the tumor size by date, and Vo is the value of measuring the initial tumor size.
# [4] = system: human lung cancer cells (A549); assay: Nude mouse xenograft model of human lung cancer cells, oral administration; assay type: in vivo; design: Tumor size increase (Vt—V0): unit not given here
# Procedure: Anticancer activity against lung cancer according to the oral administration of Tr-9 was confirmed through a nude mouse xenograft model of human lung cancer cells (A549). Specific pathogen-free (SPF) nude mice of the BALB/C strain were used as the animal model. Animals were bred in the animal room of Daedeok Campus of Hannam University maintained at a temperature of 23±3° C., relative humidity of 55±15%, ventilation frequency of 10-20 times/hr, lighting time of 12 hours(lights on at 8 am and off at 8 pm) and illuminance of 150 to 300 Lux.
# as §3, §1, §2, §4
compound,measurement,setting,value
CC(=O)OC(C)(C)C1CC2=C(C)C(=O)CC2C(C)CC1OC(=O)CC(C)C (stereo not shown) [Tr-9],Change in mouse weight,[1]; 0 Day after drug treatment,100.0 ±0.0
same,Change in mouse weight,[1]; 2 Days after drug treatment,99.7 ±1.7
same,Change in mouse weight,[1]; 5 Days after drug treatment,100.5 ±3.2
same,Change in mouse weight,[1]; 7 Days after drug treatment,99.9 ±4.1
same,Change in mouse weight,[1]; 9 Days after drug treatment,99.8 ±4.9
same,Change in mouse weight,[1]; 11 Days after drug treatment,98.6 ±3.5
same,Change in mouse weight,[1]; 14 Days after drug treatment,99.7 ±4.5
same,Change in mouse weight,[1]; 16 Days after drug treatment,98.5 ±6.0
same,Change in mouse weight,[1]; 18 Days after drug treatment,100.4 ±5.5
same,Change in mouse weight,[1]; 21 Days after drug treatment,102.4 ±7.0
same,difference in body weight according to the administration of the drugs,[1]; day 2 to day 21,almost no difference in body weight
same,Change in mouse weight,[2]; 0 Day after drug treatment,100.0 ±0.0
same,Change in mouse weight,[2]; 2 Days after drug treatment,95.6 ±1.7
same,Change in mouse weight,[2]; 5 Days after drug treatment,96.9 ±1.8
same,Change in mouse weight,[2]; 7 Days after drug treatment,99.5 ±1.5
same,Change in mouse weight,[2]; 9 Days after drug treatment,102.3 ±2.8
same,Change in mouse weight,[2]; 12 Days after drug treatment,98.6 ±1.5
same,Change in mouse weight,[2]; 14 Days after drug treatment,100.7 ±3.6
same,Change in mouse weight,[2]; 16 Days after drug treatment,102.5 ±3.8
same,Change in mouse weight,[2]; 19 Days after drug treatment,103.6 ±5.5
same,Change in mouse weight,[2]; 21 Days after drug treatment,102.9 ±5.7
same,Change in mouse weight,[2]; 23 Days after drug treatment,104.7 ±5.6
same,difference in body weight according to the administration of the drugs,[2]; day 2 to day 23,almost no difference in body weight
same,tumor size further reduced compared to the group intraperitoneally administered with the torilin,[3]; intraperitoneal,about 17%
same,Tumor size increase (Vt−V0),"[3]; intraperitoneal once a day, Day 0, table title: Change in tumor size",0.0±0.0
same,Tumor size increase (Vt−V0),"[3]; intraperitoneal once a day, Day 2, table title: Change in tumor size",7.0±5.4
same,Inhibition rate (tumor size increase),"[3]; intraperitoneal once a day, Day 2, vs control",48.5%
same,Tumor size increase (Vt−V0),"[3]; intraperitoneal once a day, Day 5, table title: Change in tumor size",13.8±8.5
same,Inhibition rate (tumor size increase),"[3]; intraperitoneal once a day, Day 5, vs control",34.0%
same,Tumor size increase (Vt−V0),"[3]; intraperitoneal once a day, Day 7, table title: Change in tumor size",19.6±10.1
same,Inhibition rate (tumor size increase),"[3]; intraperitoneal once a day, Day 7, vs control",42.2%
same,Tumor size increase (Vt−V0),"[3]; intraperitoneal once a day, Day 9, table title: Change in tumor size",24.4±7.1
same,Inhibition rate (tumor size increase),"[3]; intraperitoneal once a day, Day 9, vs control",46.7%
same,Tumor size increase (Vt−V0),"[3]; intraperitoneal once a day, Day 12, table title: Change in tumor size",61.1±7.0
same,Inhibition rate (tumor size increase),"[3]; intraperitoneal once a day, Day 12, vs control",30.5%
same,Tumor size increase (Vt−V0),"[3]; intraperitoneal once a day, Day 14, table title: Change in tumor size",116.4±15.1
same,Inhibition rate (tumor size increase),"[3]; intraperitoneal once a day, Day 14, vs control",22.7%
same,Tumor size increase (Vt−V0),"[3]; intraperitoneal once a day, Day 16, table title: Change in tumor size",198.3±22.8
same,Inhibition rate (tumor size increase),"[3]; intraperitoneal once a day, Day 16, vs control",24.6%
same,Tumor size increase (Vt−V0),"[3]; intraperitoneal once a day, Day 19, table title: Change in tumor size",309.2±39.5
same,Inhibition rate (tumor size increase),"[3]; intraperitoneal once a day, Day 19, vs control",39.6%
same,Tumor size increase (Vt−V0),"[3]; intraperitoneal once a day, Day 21, table title: Change in tumor size",415.2±53.1
same,Inhibition rate (tumor size increase),"[3]; intraperitoneal once a day, Day 21, vs control",38.9%
same,Tumor weight at Day 23,"[3]; intraperitoneal once a day, Day 23",0.641 ± 0.1 g
same,Tumor size increase (Vt−V0),"[3]; intraperitoneal once a day, Day 23, table title: Change in tumor size",531.8±46.5
same,Inhibition rate (tumor size increase),"[3]; intraperitoneal once a day, Day 23, vs control",44.2%
same,tumor size compared to the control group,"[3]; intraperitoneal, after day 19",statistically significantly smaller
same,Tumor size increase (Vt—V0),"[4]; oral once a day, Day 0",0.0±0.0
same,Tumor size increase (Vt—V0),"[4]; oral once a day, Day 2",5.4±1.4
same,Inhibition rate (tumor size increase),"[4]; oral once a day, Day 2, vs control",55.4%
same,Tumor size increase (Vt—V0),"[4]; oral once a day, Day 5",13.9±6.1
same,Inhibition rate (tumor size increase),"[4]; oral once a day, Day 5, vs control",31.5%
same,Tumor size increase (Vt—V0),"[4]; oral once a day, Day 7",24.0±14.5
same,Inhibition rate (tumor size increase),"[4]; oral once a day, Day 7, vs control",25.9%
same,Tumor size increase (Vt—V0),"[4]; oral once a day, Day 9",36.5±12.5
same,Inhibition rate (tumor size increase),"[4]; oral once a day, Day 9, vs control",31.3%
same,Tumor size increase (Vt—V0),"[4]; oral once a day, Day 12",67.8±25.4
same,Inhibition rate (tumor size increase),"[4]; oral once a day, Day 12, vs control",33.5%
same,Tumor size increase (Vt—V0),"[4]; oral once a day, Day 14",119.9±37.5
same,Inhibition rate (tumor size increase),"[4]; oral once a day, Day 14, vs control",34.1%
same,Tumor size increase (Vt—V0),"[4]; oral once a day, Day 16",183.4±85.6
same,Inhibition rate (tumor size increase),"[4]; oral once a day, Day 16, vs control",36.8%
same,Tumor size increase (Vt—V0),"[4]; oral once a day, Day 19",322.8±71.3
same,Inhibition rate (tumor size increase),"[4]; oral once a day, Day 19, vs control",39.0%
same,Tumor size increase (Vt—V0),"[4]; oral once a day, Day 21",448.0±131.2
same,Inhibition rate (tumor size increase),"[4]; oral once a day, Day 21, vs control",39.2%
same,Tumor size increase (Vt—V0),"[4]; oral once a day, Day 23",575.0±159.7
same,Tumor weight at Day 23,"[4]; oral once a day, Day 23",0.676 ± 0.185 g
same,Inhibition rate (tumor size increase),"[4]; oral once a day, Day 23, vs control",41.4%
same,tumor size compared to the control group,"[4]; oral, after day 19",statistically significantly smaller
